Measured values from ChEMBL document CHEMBL1201862, “PubChem BioAssay data set” (2004).
“And” between values parts separate entries of the source, which are not always exact repeats. Identical values can stand only once. The source made the active and inactive calls.

Legend:
HeLa = experiment: ATP-based viability loss in HeLa cells – cell-based, CellTiter-Glo luminescence, cherry-pick samples, cytotoxicity control for MITF activator project, dose response (AID 540259); format: functional; conditions: Homo sapiens
Escherichia coli [1] = experiment: microbe, parasite or virus in culture
[2] = HPDE-C7 pancreatic duct cell viability loss – fluorescence, HTS (AID 430); format: functional, cell-based; conditions: Homo sapiens
Escherichia coli [3] = experiment: microbe, parasite or virus in culture; remark: listed apart in the source
[4] = viability loss of HPDE-C7K cells – cell-based, fluorescence, HTS, primary screen (AID 431); format: functional; conditions: Homo sapiens
INS1 = experiment: INS-1E survival protection against cytokine death – cell-based, luminescence, retest, dose response (AID 449756); format: functional; conditions: Rattus norvegicus;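 also: cell death triggered by IL-1 beta plus TNF-alpha plus IFN-gamma mixture; protective hits raise ATP signal compared with cytokine alone wells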
[5] = molecular target: T1, COUP transcription factor 2 (Homo sapiens, UniProt P24468); experiment: Luminescence-based cell-based high throughput dose response assay to identify inhibitors of COUP-TFII (NR2F2).; format: functional;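 also: HEK293 cells transiently cotransfected with COUP-TFII expression vector and reporter; luciferase reporter luminescence driven by COUP-TFII from the pX2-168 reporter plasmid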
T1 sequence (P24468 whole entry): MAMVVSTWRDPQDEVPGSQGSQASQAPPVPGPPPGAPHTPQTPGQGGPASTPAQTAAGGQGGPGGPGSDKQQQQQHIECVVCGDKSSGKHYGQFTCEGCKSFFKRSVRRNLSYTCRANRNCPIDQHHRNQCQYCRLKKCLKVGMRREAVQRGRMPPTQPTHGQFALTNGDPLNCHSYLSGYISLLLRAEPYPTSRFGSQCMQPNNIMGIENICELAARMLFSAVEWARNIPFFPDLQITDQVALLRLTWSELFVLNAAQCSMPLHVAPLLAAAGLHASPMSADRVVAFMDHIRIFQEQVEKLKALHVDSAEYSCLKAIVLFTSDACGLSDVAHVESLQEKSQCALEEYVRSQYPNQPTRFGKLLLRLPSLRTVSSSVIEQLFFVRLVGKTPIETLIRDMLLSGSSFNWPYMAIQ

[6] = molecular target: Nucleotide-binding oligomerization domain-containing protein 2 (Homo sapiens, UniProt Q9HC29); experiment: inhibition of NOD2-driven NF-kB reporter – cell-based, luminescence, uHTS, HEK293 (AID 1566); format: functional
Nucleotide-binding oligomerization domain-containing protein 2, sequence (Q9HC29 whole entry, the tested form may be a part): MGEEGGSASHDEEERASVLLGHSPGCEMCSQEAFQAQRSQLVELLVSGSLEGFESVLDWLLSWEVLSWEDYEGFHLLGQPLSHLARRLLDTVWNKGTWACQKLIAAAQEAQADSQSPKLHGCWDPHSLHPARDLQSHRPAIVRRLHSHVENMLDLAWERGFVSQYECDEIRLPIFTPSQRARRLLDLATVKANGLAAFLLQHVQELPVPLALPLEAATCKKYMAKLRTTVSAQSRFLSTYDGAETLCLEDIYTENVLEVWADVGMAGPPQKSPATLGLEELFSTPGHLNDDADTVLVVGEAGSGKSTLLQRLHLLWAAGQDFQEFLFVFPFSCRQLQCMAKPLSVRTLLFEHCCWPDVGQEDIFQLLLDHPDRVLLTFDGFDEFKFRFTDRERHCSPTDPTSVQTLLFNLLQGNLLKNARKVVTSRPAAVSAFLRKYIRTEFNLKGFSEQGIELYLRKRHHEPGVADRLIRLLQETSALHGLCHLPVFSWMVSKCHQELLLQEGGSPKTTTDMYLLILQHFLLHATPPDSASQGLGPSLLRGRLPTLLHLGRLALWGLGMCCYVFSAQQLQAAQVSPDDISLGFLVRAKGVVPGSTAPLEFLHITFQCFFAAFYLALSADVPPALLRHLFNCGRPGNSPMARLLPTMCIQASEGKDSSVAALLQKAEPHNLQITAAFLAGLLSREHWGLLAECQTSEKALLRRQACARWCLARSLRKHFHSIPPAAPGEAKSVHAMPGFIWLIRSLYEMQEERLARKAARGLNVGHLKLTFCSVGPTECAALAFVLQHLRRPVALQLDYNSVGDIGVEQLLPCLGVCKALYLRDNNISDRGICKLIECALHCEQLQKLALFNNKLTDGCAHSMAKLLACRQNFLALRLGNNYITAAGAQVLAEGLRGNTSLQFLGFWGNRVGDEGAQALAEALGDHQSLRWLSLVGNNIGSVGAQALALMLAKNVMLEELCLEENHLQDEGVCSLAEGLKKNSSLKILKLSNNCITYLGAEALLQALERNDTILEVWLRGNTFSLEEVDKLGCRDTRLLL

[7] = reduction of Shn3 3'UTR-driven luciferase in osteoblasts – cell-based, Clone20 osteoblasts, firefly luciferase, cherry-picked, dose response (AID 624132); format: functional;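 also: firefly luciferase luminescence from reporter carrying the Shn3 3'UTR in osteoblasts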
HEK293 [8] = experiment: inhibition of NOD1-driven NF-kB reporter – cell-based, luminescence, uHTS, primary screen (AID 1578); format: functional; conditions: Homo sapiens
HEK293 [9] = experiment: cells; format: functional, cell-based; conditions: Homo sapiens
HEK293 [10] = experiment: cells; format: functional, cell-based; conditions: Homo sapiens; remark: listed apart in the source
HEK293 [11] = experiment: NOD2 signaling inhibitors in MDP-stimulated cells, cell-based, uHTS, luminescence (AID 2001); format: functional; conditions: Homo sapiens
Tumor necrosis factor = Tumor necrosis factor (Homo sapiens, UniProt P01375); experiment: analog potency on TNFa NF-kB signaling – cell-based, revised, SAR follow-up (AID 2337); format: functional
Tumor necrosis factor, sequence (P01375 whole entry): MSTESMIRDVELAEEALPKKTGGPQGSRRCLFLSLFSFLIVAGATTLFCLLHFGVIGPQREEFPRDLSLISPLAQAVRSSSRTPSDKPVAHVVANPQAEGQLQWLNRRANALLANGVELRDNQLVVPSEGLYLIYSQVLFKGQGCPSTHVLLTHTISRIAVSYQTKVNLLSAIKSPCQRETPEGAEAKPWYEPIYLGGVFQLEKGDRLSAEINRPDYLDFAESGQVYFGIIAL

Jurkat = experiment: blockers of NF-kB activation in T cells – Jurkat, luciferase reporter, luminescence, B- and T-cell, dose response (AID 489004); format: functional, cell-based; conditions: Homo sapiens;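 also: NF-kB luciferase reporter Jurkat cells stimulated with PMA plus ionomycin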
HEK293 [12] = experiment: cells; format: functional, cell-based; conditions: Homo sapiens; remark: listed apart in the source
[13] = HEK-293T viability loss, compound-treated – cell-based, uHTS hits, cytotoxicity control for B/T-cell NF-kB inhibitor project, dose response (AID 489019); format: functional;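 also: IC50 reflects cytotoxicity as loss of cell viability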
[14] = loss of viability in HepG2 cells – cell-based, CellTiter-Glo, cherry-picked, cytotoxicity control for Shn3 inhibitor project, dose response (AID 624134); format: functional
HEK293 [15] = experiment: cells; conditions: Homo sapiens
[16] = non-specific 3'UTR reporter inhibition in Clone20-Shn3RL – cell-based, Renilla luciferase, cherry-picked, counter-screen for Shn3 inhibitor project, dose response (AID 624133); format: functional
[17] = molecular target: T2, Nucleotide-binding oligomerization domain-containing protein 1 (Homo sapiens, UniProt Q9Y239); experiment: blockers of NOD1 pathway activity – revised, SAR follow-up (AID 2333); format: functional
T2 sequence (Q9Y239 whole entry): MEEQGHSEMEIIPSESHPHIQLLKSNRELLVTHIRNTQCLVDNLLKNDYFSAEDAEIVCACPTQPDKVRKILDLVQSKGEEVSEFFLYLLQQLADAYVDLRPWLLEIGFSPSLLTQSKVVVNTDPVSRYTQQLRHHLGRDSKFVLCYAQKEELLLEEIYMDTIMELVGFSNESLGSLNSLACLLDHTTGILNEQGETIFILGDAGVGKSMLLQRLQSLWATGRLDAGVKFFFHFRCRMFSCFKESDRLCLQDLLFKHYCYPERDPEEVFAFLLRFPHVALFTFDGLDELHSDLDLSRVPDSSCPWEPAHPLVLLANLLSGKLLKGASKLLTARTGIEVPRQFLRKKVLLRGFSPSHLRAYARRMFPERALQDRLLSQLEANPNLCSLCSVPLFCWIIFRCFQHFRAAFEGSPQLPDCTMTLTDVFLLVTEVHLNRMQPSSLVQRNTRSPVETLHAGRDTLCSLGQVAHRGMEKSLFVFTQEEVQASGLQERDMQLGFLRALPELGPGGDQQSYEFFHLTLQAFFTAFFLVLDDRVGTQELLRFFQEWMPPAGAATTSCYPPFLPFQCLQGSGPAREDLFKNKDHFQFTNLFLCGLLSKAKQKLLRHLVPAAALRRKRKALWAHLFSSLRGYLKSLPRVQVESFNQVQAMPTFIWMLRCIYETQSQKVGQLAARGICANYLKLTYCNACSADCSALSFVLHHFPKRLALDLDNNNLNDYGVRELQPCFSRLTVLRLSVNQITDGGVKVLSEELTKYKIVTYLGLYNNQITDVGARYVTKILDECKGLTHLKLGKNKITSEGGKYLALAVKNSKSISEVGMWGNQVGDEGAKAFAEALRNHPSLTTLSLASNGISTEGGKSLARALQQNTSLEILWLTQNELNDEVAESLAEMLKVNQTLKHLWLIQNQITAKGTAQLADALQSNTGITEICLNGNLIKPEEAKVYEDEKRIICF

[18] = molecular target: T3, Short transient receptor potential channel 4 (Mus musculus, UniProt Q9QUQ5); experiment: block of DAMGO-driven TRPC4 calcium entry – cell-based, HEK293 TRPC4/mu-opioid, Fluo-4 calcium, dose response (AID 434942); format: functional;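 also: potency of inhibitors blocking the TRPC4 calcium response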
T3 sequence (Q9QUQ5 whole entry): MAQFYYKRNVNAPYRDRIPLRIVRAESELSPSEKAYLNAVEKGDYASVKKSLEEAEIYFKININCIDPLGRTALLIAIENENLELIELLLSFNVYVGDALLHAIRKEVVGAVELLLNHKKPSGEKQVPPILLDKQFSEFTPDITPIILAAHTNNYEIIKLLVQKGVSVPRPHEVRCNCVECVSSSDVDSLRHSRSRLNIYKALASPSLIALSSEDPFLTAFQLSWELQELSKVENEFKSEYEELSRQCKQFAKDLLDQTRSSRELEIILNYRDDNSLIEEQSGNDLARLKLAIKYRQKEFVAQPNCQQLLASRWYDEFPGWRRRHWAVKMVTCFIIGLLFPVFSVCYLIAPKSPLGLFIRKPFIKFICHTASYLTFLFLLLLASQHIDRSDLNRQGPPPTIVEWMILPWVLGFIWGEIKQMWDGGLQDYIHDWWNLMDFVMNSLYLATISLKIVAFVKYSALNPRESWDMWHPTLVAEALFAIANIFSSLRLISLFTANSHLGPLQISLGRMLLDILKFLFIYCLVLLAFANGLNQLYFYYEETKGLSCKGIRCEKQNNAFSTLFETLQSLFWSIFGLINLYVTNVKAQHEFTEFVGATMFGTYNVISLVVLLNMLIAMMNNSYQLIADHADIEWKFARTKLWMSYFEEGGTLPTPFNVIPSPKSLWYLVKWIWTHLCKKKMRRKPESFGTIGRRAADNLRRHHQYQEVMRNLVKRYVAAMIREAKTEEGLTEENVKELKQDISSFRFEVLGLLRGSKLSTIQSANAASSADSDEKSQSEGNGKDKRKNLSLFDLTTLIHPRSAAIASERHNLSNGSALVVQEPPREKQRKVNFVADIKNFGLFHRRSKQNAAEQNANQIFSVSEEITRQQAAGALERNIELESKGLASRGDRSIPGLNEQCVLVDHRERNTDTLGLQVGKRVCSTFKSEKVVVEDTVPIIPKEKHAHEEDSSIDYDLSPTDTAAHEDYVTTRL

[19] = molecular target: T3, Short transient receptor potential channel 4; experiment: calcium entry via TRPC4 opening agents – cell-based, HEK293 TRPC4/mu-opioid, Fluo-4 calcium, dose response (AID 434937); format: functional

For `COc1ccccc1OCc1cc(-c2ccccc2)no1`, the AC50 (HeLa) was 48 µM (active).
For `CCOC(=O)CC(=O)Nc1ccccc1C(=O)O`, the AC50 (Escherichia coli [1]) was 27 µM (active).
In the case of `CC(C)CCNC(=O)c1c(N)n(CC2CCCO2)c2nc3ccccc3nc12` (centres undefined), the EC50 [2] was 13.2 µM (active), the AC50 (Escherichia coli [3]) was 16.3 µM (active) and the EC50 [4] was 13.6 µM (active).
With `Cn1nccc1C(=O)NC1CCCc2c1cnn2-c1ccccc1F` (centres undefined) the AC50 (INS1) was 2.26 µM (active), the IC50 [5] was 1.51 µM (active) and the EC50 [6] was 0.61 µM (active). The AC50 [7] was 0.37 µM (active), the EC50 (HEK293 [8]) was 0.62 µM (active) and the IC50 (HEK293 [9]) was > 20 µM (inactive). For the same compound, the IC50 (HEK293 [10]) was 2.36 µM (active), the IC50 (HEK293 [11]) was 2.71 µM (active) and the IC50 (Tumor necrosis factor) was 4.28 µM (active) and 14.6 µM (active). The IC50 (Jurkat) was > 80 µM (inactive), the IC50 (HEK293 [12]) was 13.8 µM (active) and the IC50 [13] was > 80 µM (inactive). For the same compound, the AC50 [14] was 0.472 µM (active), the IC50 (HEK293 [15]) was > 20 µM (inactive) and the AC50 [16] was 3.96 µM (active). The IC50 [17] was 968 nM (active) and 825 nM (active).
With `CN(C)C(CNC(=O)c1cc2ccccc2oc1=O)c1ccccc1` (centres undefined) the EC50 [18] was 0.149 µM (active), the EC50 [19] was 0.299 µM (active) and the AC50 (HeLa) was 240 µM (active).
